These results are taken from publication PMC5133449, “Peripheral self-reactivity regulates antigen-specific CD8 T-cell responses and cell division under physiological conditions” (Open Biology, 2016).

In one data set the target is Rop7-III TCR. In words: SPR affinity of H-2 L^d-peptide complexes for immobilised recombinant Rop7-III TCR (BIAcore 3000). The class given is binding, mouse. The settings on record: peptide loaded in H-2 L^d as analyte, 1 to 200 µM, 25°C, biotinylated TCR on streptavidin CM5 chip, equilibrium model, at least duplicates; read-out: dissociation constant Kd. As for the experimental part: (§1) Figure 2. Binding of Rop7-I, -II and -III to Rop7 peptide variants. (a) Splenocytes from WT or Rop7-I, -II and -III heterozygous mice were stained for CD8 and with H-2 L^d tetramers loaded with the indicated peptides. Histograms show H-2 L^d-Rop7 variants staining on CD8 T cells from WT or Rop7 mice. (b) TCRs from Rop7-I, -II and -III T cells were recombinantly expressed and refolded. Binding affinities for IPAAAGRFF-, IPAFAGRFF- and IPANAGRFF-loaded H-2 L^d were measured with a BIAcore 3000 and analysed using an equilibrium model. The raw data (black lines), fits (red lines) and calculated dissociation constant are shown in each panel.
For the Rop7-I, -II and -III TCRs, the α and β chains were cloned individually in the bacterial expression vector pET28a. Residues threonine 46 of the α chain's and serine 57 of the β chain's constant regions were mutated to cysteine to enable non-native disulfide bridge formation within the heterodimer complex. A biotinylation sequence was introduced at the C terminus of the β chain. The chains were separately expressed in Escherichia coli. BL21-DE3 (pLysS) and obtained as inclusion bodies and dissolved in 8 M urea, 25 mM MES, 1 mM EDTA, 1 mM DTT at pH 6.0. […] The final response was calculated after subtracting the control cell response. […] Equilibrium Kd values were calculated by nonlinear curve fitting of background-subtracted data using PRISM software.

Data set [1] relates to CD8 T cells from Rop7-I mice. Kind of data set: Peptide-loaded H-2 L^d tetramer staining. Type of data set: cell-based, mouse. The settings on record: caged tetramer approach, H-2 L^d tetramers loaded with peptide, splenocytes, flow cytometry. The protocol: as §1
(§2) Purified anti-CD3 (clone 17A2) and anti-CD28 (clone 37.51) antibodies, fluorescently labelled Granzyme B (clone 16G6), CD3ɛ (clone 145-2C11), CD4 (clone GK1.5), CD8 (clone 53-6.7), CD45.1 (clone A20) specific antibodies were purchased from eBioscience. Biotinylated anti-CD4 (clone GK1.5), anti-CD19 (clone 1D3), fluorescently labelled CD25 (clone 7D4), CD44 (clone 1M7), CD69 (clone H1.2F3), TNFα (clone MP6-XT22) and actin (clone ab-5) specific antibodies were purchased from BD Biosciences. Fluorescently labelled CD5 (clone 53-7.3), CD28 (clone E18), CD62 L (clone mel-14), Ki-67 (clone 16A8) specific antibodies and Zombie Aqua (cat. no. 423101) were purchased from Biolegend. Fluorescently labelled anti-IFNγclone 9004) was purchased from Sigma. Anti-phospho-tyrosine residue (clone 4G10) was purchased from Millipore. Anti-phopho-ERK (Thr202/Tyr204) (D13.14.4E, cat. no. 4370) and anti-phospho-S6 (Ser235/236) (D57.2.2E, cat. no. 4858) were purchased from Cell Signalling Technology. Horseradish peroxidase-conjugated anti-mouse antibody was purchased from GE Healthcare (cat. no. NXA931). Horseradish peroxidase-conjugated goat anti-rabbit antibody was purchased from Southern Biotech (cat. no. 4041-05). CD8 T cells isolation kit (130-095-236) and anti-biotin beads (130-090-485) were purchased from Miltenyi and used according to the manufacturer's instructions. ELISA kits for the detection of mouse IL-2 (cat. no. 431001), IFNγ (cat. no. 430801) and TNFα (cat. no. 430901) were purchased from BioLegend. ELISA for mouse IgM (cat. no. 88-50470-22) and IgG (cat. no. 88-50400-22) were purchased from Ebioscience. Recombinant mouse GM-CSF (cat. no. 315-03), IL-2 (212-12) and IL-4 (cat. no. 214-14) were purchased from Peprotech. Carboxyfluorescein succinimidyl ester (CFSE) was purchased from Sigma (cat. no. 21888). Protease inhibitor cocktail was purchased from Roche (cat. no. 11836153001). H-2 L^d tetramers were produced and used as described elsewhere or obtained from the NIH tetramer facility. All peptides were produced by the MIT biopolymer facility through standard solid-phase peptide synthesis or purchased from Pepceuticals, UK.
A general note: A flow cytometer gives signals particle by particle.

In data set [2] the test system is CD8 T cells from Rop7-II mice. Kind of data set: Peptide-loaded H-2 L^d tetramer staining. The class given is cell-based, mouse. The settings on record: caged tetramer approach, H-2 L^d tetramers loaded with peptide, splenocytes, flow cytometry. The protocol: as §1, §2
For data set [3], the system named is CD8 T cells from Rop7-III mice. In words: Peptide-loaded H-2 L^d tetramer staining. The settings on record: caged tetramer approach, H-2 L^d tetramers loaded with peptide, splenocytes, flow cytometry. Type of data set: cell-based, mouse. The protocol:
as §1, §2

In data set [4] the test system is Rop7-II CD8 T cells. Kind of data set: T-cell viability (Zombie Aqua) with peptide-loaded BMDC. Type of data set: cell-based, mouse. To be noted: 3 days. From the text: Figure 4. Rop7 CD8 T cells proliferation and cytokine secretion upon Rop7 peptide variant stimulation. Sorted CD8^+ tetramer^+ T cells from pooled lymph nodes and spleen of Rop7-I, -II or -III heterozygous mice were labelled with CFSE and stimulated with BMDC loaded with Rop7 peptide variants at indicated concentrations. (a) Histograms show CFSE dilution on sorted CD8 T cells from Rop7-I, -II or -III mice stimulated with IPAAAGRFF peptide-loaded BMDC after 3 days of stimulation. (b) IL-2, TNFα and IFNγ concentration measured in culture supernatant after 3 days of stimulation. Mean of three technical replicates (T-cell stimulation). Error bars: standard deviation (n = 3). Representative of three independent experiments. (c) Bar histograms show the percentage of living cells (Zombie Aqua negative) after 3 days of stimulation with IPAAAGRFF-loaded BMDC. Mean of three technical replicates (T-cell stimulation). Error bars: standard deviation (n = 3). Representative of three independent experiments. (d) Histograms show CFSE dilution on sorted CD8 T cells from Rop7-I or -II heterozygous mice stimulated with IPANAGRFF peptide-loaded BMDC after 3 days of stimulation. (e) IL-2, TNFα and IFNγ concentration measured in culture supernatant after 3 days of stimulation. Mean of three technical replicates (T-cell stimulation). Error bars: standard deviation (n = 3). […]

For data set [5], the system named is Rop7-III CD8 T cells. In words: Cytokine secretion with peptide-loaded BMDC. The class given is cell-based, mouse. To be noted: 1 or 0.01 µg/ml, supernatant after 3 days, ELISA or multiplex, n = 3 technical replicates. From the text: (§3) Figure 4. Rop7 CD8 T cells proliferation and cytokine secretion upon Rop7 peptide variant stimulation. Sorted CD8^+ tetramer^+ T cells from pooled lymph nodes and spleen of Rop7-I, -II or -III heterozygous mice were labelled with CFSE and stimulated with BMDC loaded with Rop7 peptide variants at indicated concentrations. (a) Histograms show CFSE dilution on sorted CD8 T cells from Rop7-I, -II or -III mice stimulated with IPAAAGRFF peptide-loaded BMDC after 3 days of stimulation. (b) IL-2, TNFα and IFNγ concentration measured in culture supernatant after 3 days of stimulation. Mean of three technical replicates (T-cell stimulation). Error bars: standard deviation (n = 3). Representative of three independent experiments. (c) Bar histograms show the percentage of living cells (Zombie Aqua negative) after 3 days of stimulation with IPAAAGRFF-loaded BMDC. Mean of three technical replicates (T-cell stimulation). Error bars: standard deviation (n = 3). Representative of three independent experiments. (d) Histograms show CFSE dilution on sorted CD8 T cells from Rop7-I or -II heterozygous mice stimulated with IPANAGRFF peptide-loaded BMDC after 3 days of stimulation. (e) IL-2, TNFα and IFNγ concentration measured in culture supernatant after 3 days of stimulation. Mean of three technical replicates (T-cell stimulation). Error bars: standard deviation (n = 3). Representative of three independent experiments. (f) Bar histograms show the percentage of living cells (Zombie Aqua negative) after 3 days of stimulation with IPANAGRFF-loaded BMDC. *p < 0.05, **p < 0.01, ***p < 0.001 (Student's t-test).
(§4) Cytokine concentrations were measured by ELISA according to the manufacturer's instructions or by multiplex assay (Eve Technologies, Calgary, Alberta, Canada).

The subject of data set [6] is Rop7-II CD8 T cells. Kind of data set: Cytokine secretion with peptide-loaded BMDC. Type of data set: cell-based, mouse. To be noted: 1 or 0.01 µg/ml, supernatant after 3 days, ELISA or multiplex, n = 3 technical replicates.
Description: as §3, §4

The test system of a further data set is Rop7 CD8 T cells. The settings on record: BMDC loaded with Rop7 peptide 1 µg/ml, 72 h, then peptide-loaded target splenocytes 16–20 h.
A further data set concerns Rop7-I CD8 T cells. Kind of data set: T-cell proliferation (CFSE dilution) with peptide-loaded BMDC. The class given is cell-based, mouse. The settings on record: 1 or 0.01 µg/ml, 3 days.
Description: as §3
(§5) Anti-CD3/28: plate-bound anti-CD3 (clone 17A2) and anti-CD28 (clone 37.51) at indicated concentrations in flat bottom 96-well plates in the presence of 10 ng ml^–1 recombinant mouse IL-2 when specified. BMDC: dendritic cells differentiated from bone marrow progenitors for 5–7 days in GM-CSF and IL-4 containing medium loaded with Rop7 peptide (final concentration 1 or 0.01 µg ml^−1). When indicated, 10–20 × 10^6 cells per millilitre were labelled in PBS 2.5 µM CFSE for 2 min at room temperature.

The test system of data set [7] is Rop7-III CD8 T cells. The description is as above. Type of data set: cell-based, mouse. The settings on record: 1 or 0.01 µg/ml, 3 days.
Description: as §3, §5

Data set [8] has as its system Rop7-II CD8 T cells. The description is as above. Type of data set: cell-based, mouse. The settings on record: 1 or 0.01 µg/ml, 3 days.
Description: as §3, §5

Entries after “also recorded” stand apart in the source; their conditions may differ.

Description for Rop7 CD8 T cells: A measure of 1–2 × 10^5 sorted CD4^+ or CD8^+ tetramers^+ cells from pooled spleen and lymph nodes of Rop7-I, -II or -III mice were stimulated in complete RPMI in 96-well round bottom plates together with 0.5 × 10^5 Rop7 peptide-loaded BMDC (final concentration 1 µg ml^−1). After 72 h, cells were harvested and incubated with 10^5 total cells of a 1 to 1 mixture of CFSE-labelled, Rop7 peptide-loaded CD45.1 BALB/c splenocytes (final concentration 1 µg ml^−1) and control, CFSE-labelled, DMSO-treated CD45.2 BALB/c splenocytes in 96-well round bottom plates. After 16–20 h the ratio of living (propidium iodide negative) CD45.1 versus CD45.2 cells was determined by flow cytometry.

For orientation: Kd means the concentration at which binding is half-saturated. In the case of IPAFAGRFF, the dissociation constant (Kd) on Rop7-III TCR was more than 200 µM. Besides, the tetramer binding result in [1], in [2] and in data set [3] was “only Rop7-II T cells bound” each time.

For “IPAAAGRFF [peptide … derived from the Rop7 protein of Toxoplasma gondii]”, the “cell death / living cells” value with Rop7-II CD8 T cells [4] is reported as “significantly increased tendency to cell death at a lower degree of stimulation; also recorded: an increased proportion of cells died as the strength of stimulus decreased”. The “IL-2, TNFα and IFNγ production” value is “secreted increased amounts of IL-2 and IFNγ but not TNFα when compared with Rop7-I; also recorded: produced significantly more IL-2 and IFNγ, but not TNFα, compared with Rop7-I CD8 T cells” in the data set on Rop7-III CD8 T cells [5]; “produced overall less IL-2, TNFα and IFNγ; also recorded: secreted significantly fewer cytokines compared with Rop7-I and -III CD8 T cells” in the data set on Rop7-II CD8 T cells [6]. Besides, the cytotoxicity result with Rop7 CD8 T cells is given as “all Rop7 CD8 T cells were cytotoxic, albeit with subtle but notable differences”. In addition, the tetramer binding entry in data set [1] is “bound tetramers loaded with the nominal antigen (IPAAAGRFF), with little quantitative variation”; in data set [2] it was “slightly less avid than binding to Rop7-I or -III”; in data set [3] it was “bound tetramers loaded with the nominal antigen (IPAAAGRFF), with little quantitative variation”. In addition, the proliferation result in the data set with Rop7-I CD8 T cells, in the data set with Rop7-III CD8 T cells [7] and in the data set with Rop7-II CD8 T cells [8] was “able to proliferate upon antigenic stimulation in a dose-dependent manner” each time.

For the sequence IPANAGRFF, in the data set with Rop7-II CD8 T cells [4], the “cell death / living cells” value is “more prone to cell death at both peptide concentrations; also recorded: enhanced cell death compared with Rop7-I CD8 T cells”. In addition, the “IL-2, TNFα and IFNγ production” value in the data set with Rop7-II CD8 T cells [6] is “produced significantly fewer cytokines; also recorded: equally poor ability to secrete cytokines”. For the same sequence, at Rop7-III TCR, the Kd was more than 200 µM. Moreover, the tetramer binding result in [1] is “Rop7-I and -II, but not Rop7-III T cells bound”; in data set [2], “Rop7-I and -II, but not Rop7-III T cells bound”; in data set [3], “not Rop7-III T cells bound”. In addition, the proliferation result with Rop7-I CD8 T cells and with Rop7-II CD8 T cells [8] was “able to proliferate upon stimulation” in each case.
